Calls of active or inactive are those of the source. No cut-off for these calls is given here.
target: T1, Tyrosinase (Agaricus bisporus) (UniProt O42713); test: Activation of mushroom tyrosinase at 0.12 to 75 ug/L relative to control
T1 sequence (whole entry): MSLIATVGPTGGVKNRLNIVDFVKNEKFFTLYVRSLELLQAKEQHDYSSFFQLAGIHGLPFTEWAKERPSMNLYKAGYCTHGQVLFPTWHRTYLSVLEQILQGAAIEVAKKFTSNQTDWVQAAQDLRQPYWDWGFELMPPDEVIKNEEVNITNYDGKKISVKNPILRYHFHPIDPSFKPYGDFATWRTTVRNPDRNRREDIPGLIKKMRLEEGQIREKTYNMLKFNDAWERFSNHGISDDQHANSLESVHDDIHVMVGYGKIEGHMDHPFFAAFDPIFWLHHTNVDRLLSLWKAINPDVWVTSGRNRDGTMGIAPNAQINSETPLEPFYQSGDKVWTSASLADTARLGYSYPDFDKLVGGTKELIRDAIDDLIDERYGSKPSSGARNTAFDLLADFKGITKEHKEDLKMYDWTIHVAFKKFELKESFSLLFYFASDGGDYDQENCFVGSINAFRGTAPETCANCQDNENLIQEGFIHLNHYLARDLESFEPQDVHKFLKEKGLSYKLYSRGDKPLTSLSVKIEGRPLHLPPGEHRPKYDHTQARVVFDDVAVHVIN

Row | Activity | SMILES
1 | 12% | OC[C@H]1O[C@@H](Oc2c(O)cc(O)cc2/C=C/c2ccc(O)cc2)[C@H](O)[C@@H](O)[C@@H]1O

target: T1, Tyrosinase (Agaricus bisporus); test: Activation of mushroom tyrosinase using L-DOPA as substrate at 100 umol/L preincubated for 30 mins followed by substrate addition measured for 1 min

Row | Activity | SMILES
2 | Active | CC(=O)Nc1ccc(C(C)=O)cc1

target: T1, Tyrosinase (Agaricus bisporus); test: Reversible inhibition of mushroom tyrosinase using L-DOPA as substrate at 0.1 to 0.5 uM

Row | inhibition | SMILES
3 | Active | C/C(=N\NC(N)=S)c1ccc(NC(=O)c2ccccc2)cc1

target: T1, Tyrosinase (Agaricus bisporus); test: Reversible inhibition of mushroom tyrosinase using L-DOPA as substrate at 1 to 2 uM

Row | inhibition | SMILES
4 | Active | C/C(=N\NC(N)=S)c1cccc(NC(=O)c2ccccc2)c1

target: T1, Tyrosinase (Agaricus bisporus); test: Non-competitive inhibition of mushroom tyrosinase using L-DOPA as substrate at 0.1 to 0.5 uM by Lineweaver-Burk plot analysis

Row | inhibition | SMILES
5 | Active | C/C(=N\NC(N)=S)c1ccc(NC(=O)c2ccccc2)cc1

target: T1, Tyrosinase (Agaricus bisporus); test: Competitive-uncompetitive mixed-2 type inhibition of mushroom tyrosinase using L-DOPA as substrate at 1 to 2 uM by Lineweaver-Burk plot analysis

Row | inhibition | SMILES
6 | Active | C/C(=N\NC(N)=S)c1cccc(NC(=O)c2ccccc2)c1

target: T2, Tyrosinase (Agaricus bisporus, UniProt O42713)
T2 sequence (O42713 whole entry): T1 sequence (whole entry)
Description: Inhibition of mushroom tyrosinase diphenolase activity using L-DOPA as substrate preincubated for 30 mins followed by substrate addition measured for 1 min

Row | IC50 | SMILES
7 | 406 nM | C/C(=N\NC(N)=S)c1ccc(NC(=O)C(Cl)(Cl)Cl)cc1
8 | 3620 nM | C/C(=N\NC(N)=S)c1cccc(NC(=O)C(C)C)c1
9 | 1790 nM | C/C(=N\NC(N)=S)c1cccc(NC(=O)Cc2ccccc2)c1
10 | 498 nM | COC(=O)Nc1ccc(/C(C)=N/NC(N)=S)cc1
11 | 814 nM | C/C(=N\NC(N)=S)c1ccc(NC(=O)C(C)C)cc1
12 | 356 nM | CCCCCCC(=O)Nc1ccc(/C(C)=N/NC(N)=S)cc1
13 | 1530 nM | C/C(=N\NC(N)=S)c1cccc(NC(=O)c2ccccc2)c1
14 | 2620 nM | C/C(=N\NC(N)=S)c1ccc(N)cc1
15 | 610 nM | C/C(=N\NC(N)=S)c1ccc(NC(=O)c2ccc(F)cc2)cc1
16 | 1340 nM | C/C(=N\NC(N)=S)c1ccc(NC(=O)C(F)(F)F)cc1
17 | 1690 nM | CCCCCC(=O)Nc1cccc(/C(C)=N/NC(N)=S)c1
18 | 4410 nM | C/C(=N\NC(N)=S)c1cccc(NC(=O)C(C)(C)C)c1
19 | 492 nM | CCCCC(=O)Nc1ccc(/C(C)=N/NC(N)=S)cc1
20 | 508 nM | CC(=O)Nc1ccc(/C(C)=N/NC(N)=S)cc1
21 | 291 nM | C/C(=N\NC(N)=S)c1ccc(NC(=O)c2ccccc2)cc1
22 | 2200 nM | CCCCCCC(=O)Nc1cccc(/C(C)=N/NC(N)=S)c1
23 | 372 nM | CCC(=O)Nc1ccc(/C(C)=N/NC(N)=S)cc1
24 | 1540 nM | CCCCC(=O)Nc1cccc(/C(C)=N/NC(N)=S)c1
25 | 1140 nM | COc1ccc(C(=O)Nc2ccc(/C(C)=N/NC(N)=S)cc2)cc1
26 | 4120 nM | CC(=O)Nc1cccc(/C(C)=N/NC(N)=S)c1
27 | 6110 nM | C/C(=N\NC(N)=S)c1cccc(N)c1
28 | 644 nM | CCCC(=O)Nc1ccc(/C(C)=N/NC(N)=S)cc1
29 | 762 nM | CCCCCC(=O)Nc1ccc(/C(C)=N/NC(N)=S)cc1
30 | 578 nM | C/C(=N\NC(N)=S)c1ccc(NC(=O)Cc2ccccc2)cc1
31 | 5760 nM | C/C(=N\NC(N)=S)c1cccc(NC(=O)C(F)(F)F)c1

Reference: ChEMBL document CHEMBL3407431, “Structure-based modification of 3-/4-aminoacetophenones giving a profound change of activity on tyrosinase: from potent activators to highly efficient inhibitors” (Eur J Med Chem, 2015)
